Data: PMC4157788, “A Small Library of Synthetic Di-Substituted 1, 4-Naphthoquinones Induces ROS-Mediated Cell Death in Murine Fibroblasts” (PLoS ONE, 2014)
Where two headings read alike, the source gives them in different places.

Legend:
[1] = tested on: L929 cells; assay: Light microscopy of compound-treated cells (morphology); type: cell-based, murine; settings: 24 hr, compound at IC50 (H2O2 600 µM), light microscopy 40X
Description: The cells were cultured for 24 h at 37°C, 5% CO2. […] Digital images were captured using the AxioCam HR digital camera and were processed with Axiovision Software, Version 4.1.

[2] = tested on: murine fibroblast cell line (L929); assay: MTT viability assay; type: cell-based; settings: L929 cells; for Toxicity group: 48 hrs, MTT, Group I no difference from DMSO, Group II dose-responsive inhibition, Group III >50% inhibition at the lowest concentration; for IC50: Mus musculus, read-out: IC50 (concentration of compound that induces 50% inhibition of survival); for IC50 / IC50 (concentration of compound that induces 50% inhibition of survival): MTT assay, 48 hrs incubation, doubling dilutions
Description: The MTT (3-(4, 5-dimethylthiazol-2-yl)-2, 5-diphenyl tetrazolium bromide) viability assays were carried out as per manufacturers' instructions (Sigma). The L929 cells were plated at 50,000 cells per well in a 96-well flat-bottom plate (Becton-Dickinson Labware, Franklin Lakes, NJ). The cells were cultured with decreasing concentrations of the compounds (in duplicate), beginning at 0.50 mg/ml and decreasing by half over eleven additional dilutions. As controls, cells remained untreated (media alone) or were treated with equivalent dilutions of dimethylsulfoxide (DMSO, vehicle control) (Sigma). Following a 48 h incubation, the MTT reagent was added at 10% of the total volume per well. Following a 4 h incubation, the formed crystals were solubilized by removing approximately ¾ of the supernatant and adding 50 µl of solvent (10% Triton × and 1% 12 N HCl in isopropanol) (Sigma). All wells were vigorously pipetted (without forming bubbles) to help dissolve the crystals. The plates were then read in a 96-well plate spectrophotometer at 570 nm.

[3] = tested on: L929 cells; assay: Flow cytometry assessment of apoptosis (Annexin V-FITC / propidium iodide); type: cell-based, murine; settings: 48 hrs, IC50 (lowest concentration tested for highly cytotoxic compounds), versus medium alone
Description: The cells were then washed in FACS buffer (phosphate buffered saline +2% fetal bovine serum), resuspended in 50 µl of buffer and then incubated with 30% normal mouse serum (Sigma) to prevent non-specific staining, for 15 min. at room temperature. The cells were then treated with 5 µl of FITC-conjugated annexin V (1 mg/ml stock) and 2 µl of propidium iodide (5 mg/ml stock). The cells were then mixed gently and incubated at room temperature for 15 minutes in the dark followed by an analysis by flow cytometry within the hour.

[4] = tested on: L929 cells; assay: Catalase and superoxide dismutase (SOD) protection assay (MTT viability); type: cell-based, murine; settings: 48 hr; for Protection of compound-treated cells by SOD (viability): compound at IC50, SOD 0.5 mg/ml; for Protection of compound-treated cells by combination of catalase and SOD (viability): compound at IC50, catalase 1 mg/ml + SOD 0.5 mg/ml; for Protection of compound-treated cells by catalase (viability): compound at IC50, catalase 1 mg/ml
Description: L929 cells were plated at 50,000 cells/well in a 96-well flat-bottom plate. Catalase (1 mg/ml), SOD (0.5 mg/ml), or combinations of the two were added to the cells. The cells were also treated with the indicated compounds at a concentration that inhibited 50% of cellular viability or with media or DMSO as controls. Following a 48 h incubation period, cellular viability was assessed as described above (MTT assay).

[5] = tested on: L929 cells; assay: Detection of reactive oxygen species (ROS) by DHCF-DA; type: cell-based, murine; settings: compound at IC50, 24 hrs, fluorometric assay
Description: Cells were plated at 50,000 cells per well in 96-well plates, protected or unprotected by 10 µM ascorbic acid. Following a 4 h incubation period, the cells were then treated with the indicated compounds at the IC50 or with H2O2 as a positive control. Twenty-four hours later, the plates were centrifuged and the supernatants were collected. The adherent cells were treated with 20 µL of 0.25% trypsin (Invitrogen) for 2 min. The cells were then removed and transferred to black-walled 96-well plates to prevent bleeding of fluorescence between sample wells. Dichlorofluorescein-Diacetate (10 µM) (Invitrogen - Molecular Probes), was then added to each well. The plates were then immediately read on a fluorescent plate reader using excitation wavelength of 485 nm and emission wavelength of 538 nm. Fluorescence was determined every 10 min over a 320 min. period.

[6] = tested on: L929 cells; assay: Ascorbic acid protection assay (MTT viability); type: cell-based, murine; settings: L929 cells pre-loaded for 4 h with 10 µM ascorbic acid, compound at IC50, 48 hrs
Description: […] The cells were then thoroughly washed with Hank's Balanced Salt Solution (HBSS (Invitrogen) and the MTT viability assay was conducted as described above.

[7] = tested on: caspase 3 in L929 cells; assay: Detection of active caspase-3 (colorimetric DEVD-pNA assay); type: cell-based, murine; settings: 24 h treatment
Description: The assay was performed as per the manufacturers' instructions (BioSource International, Camarillo, CA). The L929 cells were plated at 3×10^6 cells per well in 6-well plates. The cells were then treated with the indicated compounds for 24 h. After treatment with the compounds, the cells were centrifuged, washed twice with 1× PBS, were re-suspended in 50 µL of chilled Cell Lysis Buffer and were incubated for 10 min. on ice. The samples were then centrifuged and the cytosolic extracts were then transferred to 96-well flat-bottom plates. Reaction buffer (5 µL of 1.0 M DTT to 500 µL of 2× Reaction buffer), made just prior to use, and was added to each well. DEVD-pNA substrate (5 µL) was then added to each well and the samples were incubated in the dark for an additional 2 h. The plates were then read on a spectrophotometer at a wavelength of 405 nm.

[8] = tested on: L929 cells; assay: Detection of mitochondrial membrane depolarization (DePsipher, flow cytometry); type: cell-based, murine; settings: compound at IC50, DePsipher
Description: L929 cells (5×10^4 cells/well) were cultured in 12-well plates for 48 h in the presence of medium, DMSO, camptothecin (4 µM, positive control) or compound (IC50). The cells were then washed in FACS buffer resuspended in 100 µl of buffer. DePsipher (5, 5′6, 6′-tetrachloro-1, 1′, 3, 3′-tetraethylbenzimidazolylcarbocyanine iodide) (5 µl per sample) (Trevigen, Inc., Gaithersburg, MD) was then added. The cells were incubated at room temp., in the dark for a minimum of 15 min. The cells were assayed within the hour by flow cytometry. 10,000 events per sample were collected and analyzed by EXPO32 software.

Compound	Effect on cellular morphology [1]	Toxicity group [2]	IC50 [2] [µg/mL]	IC50 ([2]; same value converted to µM) [µM]	Externalization of phosphatidylserine (Annexin V staining) [3]	further results
OO [Compound H2O2, hydrogen peroxide]	rounded, granular, and vesiculated	–	–	–	–	–
CCCC1=CC(=O)c2ccccc2C1=O [Compound 11, 2-propyl-1,4-napthoquinone]	–	Group II Low toxicity	60	300	promoted externalization of PS significantly above that induced by medium alone	–
O=C1C=CC(=O)c2c(O)cccc21 [Compound 7, 5-hydroxy-1,4-napthoquinone, reference compound]	–	–	< 1	< 5.7	promoted externalization of PS significantly above that induced by medium alone	–
O=C1C(c2ccccc2)=C(c2ccccc2)C(=O)c2ccccc21 [Compound 2, 2,3-diphenyl-1,4-napthoquinone]	detrimental to cell survival	Group II Intermediate toxicity	30	96.7	promoted externalization of PS significantly above that induced by medium alone	Protection of compound-treated cells by SOD (viability) [4]: did not protect; Protection of compound-treated cells by combination of catalase and SOD (viability) [4]: did not protect the cells against compound 2 beyond that provided by catalase alone; Protection of compound-treated cells by catalase (viability) [4]: partially protected; Formation of intracellular reactive oxygen species (ROS) [5]: induced levels of ROS equal to that induced by H2O2; Protection of compound-treated cells by ascorbic acid pre-treatment (viability) [6]: partially protected from cell death; Activation of caspase 3 [7]: activated caspase 3 equivalently
CC1=C(C)C(=O)c2ccccc2C1=O [Compound 3, 2,3-dimethyl-1,4-napthoquinone]	–	–	8	42.9	promoted externalization of PS significantly above that induced by medium alone	–
N#CC1=C(C#N)C(=O)C(Cl)=C(Cl)C1=O [Compound 8, 2,3-dichloro-5,6-dicyano-1,4-benzoquinone]	–	Group I No toxicity	–	–	–	IC50 (concentration of compound that induces 50% inhibition of survival) [2]: No inhibition
CC1=C(C/C=C(\C)CCC[C@H](C)CCC[C@H](C)CCCC(C)C)C(=O)c2ccccc2C1=O [Compound 9, 2-methyl-3-phytyl-1,4-naphthoquinone, reference compound]	no effect on the cells	–	–	–	promoted externalization of PS significantly above that induced by medium alone	IC50 (concentration of compound that induces 50% inhibition of survival) [2]: No inhibition; Formation of intracellular reactive oxygen species (ROS) [5]: induced ROS equal to that generated in non-treated cells
CCC1=C(C)C(=O)c2ccccc2C1=O [Compound 12, 2-ethyl-3-methyl-1,4-napthoquinone]	–	–	30	150	–	–
CC1=CC(=O)c2c(O)cccc2C1=O [Compound 5, 2-methyl-5-hydroxy-1,4-napthoquinone, reference compound]	detrimental to cell survival	Group III High toxicity	< 1	< 5.3	promoted externalization of PS significantly above that induced by medium alone	Protection of compound-treated cells by SOD (viability) [4]: did not protect; Protection of compound-treated cells by combination of catalase and SOD (viability) [4]: did not protect; Protection of compound-treated cells by catalase (viability) [4]: did not protect; Change in mitochondrial membrane potential (depolarization) [8]: does not activate mitochondrial depolarization; Formation of intracellular reactive oxygen species (ROS) [5]: induced levels of ROS equal to that induced by H2O2; Protection of compound-treated cells by ascorbic acid pre-treatment (viability) [6]: partially protected from cell death; Activation of caspase 3 [7]: activated caspase 3 equivalently
O=C1C=CC(=O)c2ccccc21 [Compound 6, 1,4-napthoquinone]	–	–	< 1	< 6.3	promoted externalization of PS significantly above that induced by medium alone	Activation of caspase 3 [7]: activated caspase 3 equivalently
CC(C)=CCC1=C(O)C(=O)c2ccccc2C1=O [Compound 4, 2-hydroxy-3-(3-methyl-2 butenil)-1, 4 naphthoquinone]	–	–	15	62	promoted externalization of PS significantly above that induced by medium alone	–
O=C1c2ccccc2C(=O)C2OC12 (stereo not drawn) [Compound 10, 1,4-napthoquinone epoxide]	–	–	4	23	–	–
